Article PMC2874658 (Bioorganic & medicinal chemistry letters, 2010)

Legend:
PKM2 = PKM2 (Homo sapiens, UniProt P14618); test: steady-state kinetics of PEP and ADP in the PK-LDH coupled assay; format: biochemical
hPK, M2 (PKM2) = hPK, M2 (PKM2) (Homo sapiens, UniProt P14618); test: luminescent pyruvate kinase-luciferase coupled assay; format: biochemical; settings: for activation at 57 µM: read-out: hPK, M2 Max. Res, % activation at 57 μM of compound, luciferase coupled assay; for potency (in words): PKM2 activation, SAR statement
hPK, M2 (PKM2), sequence (P14618 whole entry): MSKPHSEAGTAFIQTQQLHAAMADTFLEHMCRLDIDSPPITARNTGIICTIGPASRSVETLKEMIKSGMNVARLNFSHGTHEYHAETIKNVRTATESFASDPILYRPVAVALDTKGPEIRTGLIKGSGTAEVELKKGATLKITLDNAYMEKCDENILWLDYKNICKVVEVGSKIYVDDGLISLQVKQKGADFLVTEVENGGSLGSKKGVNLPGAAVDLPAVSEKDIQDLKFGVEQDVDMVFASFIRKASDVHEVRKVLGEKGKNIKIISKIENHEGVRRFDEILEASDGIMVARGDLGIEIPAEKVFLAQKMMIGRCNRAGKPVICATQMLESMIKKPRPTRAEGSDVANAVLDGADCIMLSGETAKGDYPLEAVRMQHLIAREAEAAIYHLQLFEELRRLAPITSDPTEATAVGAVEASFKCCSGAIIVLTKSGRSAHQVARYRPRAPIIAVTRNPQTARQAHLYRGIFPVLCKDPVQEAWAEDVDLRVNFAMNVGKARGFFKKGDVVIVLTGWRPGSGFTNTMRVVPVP

PKM2, sequence (P14618 whole entry): as above

| SMILES | activation at 57 µM (hPK, M2 (PKM2)) | potency (in words) (hPK, M2 (PKM2)) | other results |
| --- | --- | --- | --- |
| Cc1cc2c(s1)c1cnn(Cc3ccccc3F)c(=O)c1n2C [compound 1] | – | – | decrease of KM for PEP (PKM2; in the presence of activator versus absence (KM ~ 1.5 mM)): 10 fold; Vmax (PKM2; with or without activator): 255 pmols/min |
| Cc1cc2[nH]c3c(=O)n(Cc4ccccc4F)ncc3c2s1 [compound 19] | 33% | – | – |
| Cn1c2ccsc2c2ncn(Cc3ccccc3F)c(=O)c21 [compound 23] | < 80% | – | – |
| Cc1cc2c(s1)c1cnn(-c3ccccc3)c(=O)c1n2C [compound 24] | – | marked loss of potency | – |
| CCCCCn1ncc2c3sc(C)cc3n(C)c2c1=O [compound 25] | – | marked loss of potency | – |
